Measured values published in US20240327393A1 (SIRONAX LTD., priority 2021, published 2024).

Each molecule was assayed on HT-1080 (ATCC, CCL-121) cells (assay: HT-1080 cell viability assay with ferroptosis inducer RSL3 (Cell Titer-Glo)). Details: Homo sapiens; HT-1080 cells treated with RSL3; 3-fold, 10-point dilution, 1.1 μM highest concentration; Table 2; read-out: EC50 (nM), ferroptosis inhibitory activity.
Assay type: cell-based
Summary of the method: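 HT-1080 cells (6000 per well) were cultured overnight at 37 °C, then co-treated with RSL3 and compound in a 3-fold, 10-point series topping at 1.1 μM. Viability was read by CellTiter-Glo luminescence and normalized to untreated controls. EC50 came from a sigmoidal non-linear regression fit.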

Row | SMILES | EC50 [nM]
1 | CCN1Cc2ccc(Nc3ccc(N4CCC(C)CC4)cc3)cc2C1 [Compound 176, 2-ethyl-N-(4-(4-methylpiperidin-1-yl)phenyl)isoindolin-5-amine] | 0.1 to 100
2 | CN1CC(=O)N(C)c2ccc(Nc3ccc(N4CCC(C(F)(F)F)CC4)cc3)cc21 [Compound 109, 1,4-dimethyl-6-((4-(4-(trifluoromethyl)piperidin-1-yl)phenyl)amino)-3,4-dihydroquinoxalin-2(H)-one] | 0.1 to 100
3 | CC(C)(C)N1Cc2cc(Nc3ccc(N4CCC(C(F)(F)F)CC4)cc3)ccc2C1=O [Compound 197, 2-(tert-butyl)-5-((4-(4-(trifluoromethyl)piperidin-1-yl)phenyl)amino) isoindolin-1-one] | 0.1 to 100
4 | CN1CCC(N2Cc3cc(Nc4ccc(N5CCC(C)(C)CC5)cc4)ccc3C2=O)CC1 [Compound 247, 5-((4-(4,4-dimethylpiperidin-1-yl)phenyl)amino)-2-(1-methylpiperidin-4-yl)isoindolin-1-one] | 0.1 to 100
5 | Cc1cc(Nc2ccc3c(c2)OCC(=O)N3)cnc1N1C[C@H](C)O[C@@H](C)C1 (stereo in doubt) [Compound 152, 7-((6-(2,6-dimethylmorpholino)-5-methylpyridin-3-yl)amino)-2H-benzo[b][1,4]oxazin-3(4H)-one] | 100 to 1000
6 | Cc1cc(Nc2ccc3c(c2)OCC(=O)N3)cnc1N1CCC(C(F)(F)F)CC1 [Compound 150, 7-((5-methyl-6-(4-(trifluoromethyl)piperidin-1-yl)pyridin-3-yl)amino)-2H-benzo[b][1,4]oxazin-3(4H)-one] | 0.1 to 100
7 | COc1nc(N2CCC(C(F)(F)F)CC2)ccc1Nc1ccc2c(c1)n(C)c(=O)n2C [Compound 377, 5-((2-methoxy-6-(4-(trifluoromethyl)piperidin-1-yl)pyridin-3-yl)amino)-1,3-dimethyl-1,3-dihydro-2H-benzo[d]imidazol-2-one] | 0.1 to 100
8 | Cn1ccc2cc(Nc3ccc4c(c3)n(C)c(=O)n4C)ccc21 [Compound 266, 1,3-dimethyl-5-((1-methyl-1H-indol-5-yl)amino)-1,3-dihydro-2H-benzo[d]imidazol-2-one] | 0.1 to 100
9 | CNCCCn1c(=O)oc2ccc(Nc3ccc(N4CCC(C(F)(F)F)CC4)cc3)cc21 [Compound 418, 3-(3-(methylamino)propyl)-5-((4-(4-(trifluoromethyl)piperidin-1-yl)phenyl)amino)benzo[d]oxazol-2(3H)-one] | 0.1 to 100
10 | CCNC(=O)c1cn(C)c2ccc(Nc3ccc(N4CCC(C)CC4)cc3)cc12 [Compound 365, N-ethyl-1-methyl-5-((4-(4-methylpiperidin-1-yl)phenyl)amino)-1H-indole-3-carboxamide] | 0.1 to 100
11 | CCn1c(=O)cnc2cc(Nc3ccc(N4CCC(C)CC4)cc3)ccc21 [Compound 117] | 0.1 to 100
12 | Cc1cc(Nc2ccc3c(c2)n(C)c(=O)n3C)cnc1N1CCC(C(F)(F)F)CC1 [Compound 371, 1,3-dimethyl-5-((5-methyl-6-(4-(trifluoromethyl)piperidin-1-yl)pyridin-3-yl)amino)-1,3-dihydro-2H-benzo[d]imidazol-2-one] | 0.1 to 100
13 | CC1CN(c2ccc3cc(Nc4ccc5c(c4)OCC(=O)N5C)ccc3c2)CC(C)O1 (stereo not shown) [Compound 71, 7-((6-(2,6-dimethylmorpholino)naphthalen-2-yl)amino)-4-methyl-2H-benzo[b][1,4]oxazin-3(4H)-one] | 0.1 to 100
14 | Cc1cc(N2CCC(C)CC2)c(F)cc1Nc1ccc2c(c1)n(C)c(=O)n2C [Compound 264, 5-((5-fluoro-2-methyl-4-(4-methylpiperidin-1-yl)phenyl)amino)-1,3-dimethyl-1,3-dihydro-2H-benzo[d]imidazol-2-one] | 0.1 to 100
15 | Cc1cc(N2CC(C)OC(C)C2)ccc1Nc1ccc2c(c1)C(C)(C)C(=O)N2C (stereo not shown) [Compound 438, 5-((4-(2,6-dimethylmorpholino)-2-methylphenyl)amino)-1,3,3-trimethylindolin-2-one] | 0.1 to 100
16 | CCNc1nc2cc(Nc3ccc(N4CCC(C(F)(F)F)CC4)cc3)ccc2n1C [Compound 401, N2-ethyl-1-methyl-N5-(4-(4-(trifluoromethyl)piperidin-1-yl)phenyl)-1H-benzo[d]imidazole-2,5-diamine] | 0.1 to 100
17 | CC1CN(c2ccc(Nc3ccc4c(c3)OCC(=O)N4C)cc2)CCO1 (stereo not shown) [Compound 149, 4-methyl-7-((4-(2-methylmorpholino)phenyl)amino)-2H-benzo[b][1,4]oxazin-3(4H)-one] | 0.1 to 100
18 | CC(C)(C)NC(=O)N1CCOc2cc(Nc3ccc(N4CCC(C(F)(F)F)CC4)cc3)ccc21 [Compound 25] | 0.1 to 100
19 | Cn1c(=O)oc2cc(Nc3ccc(N4CC5(CCCC5)C4)cc3)ccc21 [Compound 316, 6-((4-(2-azaspiro[3.4]octan-2-yl)phenyl)amino)-3-methy/benzo[d]oxazol-2′3H-one] | 0.1 to 100
20 | Cc1cc(N2CC(C)OC(C)C2)ccc1Nc1cc(F)c2c(c1)OCC(=O)N2C (stereo not shown) [Compound 141, ((4-(2,6-dimethylmorpholino)-2-methylphenyl)amino)-5-fluoro-4-methyl-2H-benzo[b][1,4]oxazin-3(4H)-one] | 0.1 to 100
21 | O=C1CCc2cc(Nc3ccc(N4CCC(C(F)(F)F)CC4)cc3)ccc2N1 [Compound 158, 6-((4-(4-(trifluoromethyl)piperidin-1-yl)phenyl)amino)-3,4-dihydroquinolin-2(1H)-one] | 0.1 to 100

Same assay, conditions: Homo sapiens; HT-1080 cells treated with RSL3; 3-fold, 10-point dilution, 1.1 μM highest concentration; Table 3; read-out: EC50 (nM), ferroptosis inhibitory activity

Row | SMILES | EC50 [nM]
22 | Cc1cc(N2CCC(C(F)(F)F)CC2)ccc1Nc1ccc2c(c1)OC(CN)C(=O)N2 (stereo not shown) [Compound 592, 2-(aminomethyl)-7-((2-methyl-4-(4-(trifluoromethyl)piperidin-1-yl)phenyl)amino)-2H-benzo[b][1,4]oxazin-3(4H)-one] | 0.1 to 100
23 | CC1CCN(c2ccc(Nc3cnc4c(c3)OCC(=O)N4)cc2)CC1 [Compound 596, 7-((4-(4-methylpiperidin-1-yl)phenyl)amino)-2H-pyrido[3,2-b][1,4]oxazin-3(4H)-one] | 0.1 to 100
24 | COC1(C)CN(c2ccc(Nc3ccc4c(c3)OCC(=O)N4)c(C)c2)C1 [Compound 639, 7-((4-(3-methoxy-3-methylazetidin-1-yl)-2-methylphenyl)amino)-2H-benzo[b][1,4] oxazin-3(4H)-one] | 0.1 to 100
25 | Cc1cc(N2CCC(C(F)(F)F)CC2)ccc1Nc1ccc2c(c1)OC(CN)C(=O)N2C (stereo not shown) [Compound 607, 2-(aminomethyl)-4-methyl-7-((2-methyl-4-(4-(trifluoromethyl)piperidin-1-yl)phenyl)amino)-2H-benzo[b][1,4]oxazin-3(4H)-one] | 0.1 to 100
26 | Cc1cc(N2CCC(C(F)(F)F)CC2)ccc1Nc1cc(C)c2c(c1)OCC(=O)N2 [Compound 473, 5-methyl-7-((2-methyl-4-(4-(trifluoromethyl)piperidin-1-yl)phenyl)amino)-2H-benzo[b][1,4]oxazin-3(4H)-one] | 0.1 to 100
27 | COC1CCN(c2ccc(Nc3ccc4c(c3)OCC(=O)N4)c(C)c2)C1 (stereo not shown) [Compound 618, 7-{[4-(3-methoxypyrrolidin-1-yl)-2-methylphenyl]amino}-2,4-dihydro-1,4-benzoxazin-3-one] | 0.1 to 100
28 | Cc1cc(N2CCC(C(F)(F)F)CC2)ccc1Nc1cc(C#N)c2c(c1)OCC(=O)N2 [Compound 468, 7-((2-methyl-4-(4-(trifluoromethyl)piperidin-1-yl)phenyl)amino)-3-oxo-3,4-dihydro-2H-benzo[b][1,4]oxazine-5-carbonitrile] | 0.1 to 100
29 | COC1(C(F)(F)F)CCN(c2ccc(Nc3ccc4c(c3)OCCC(=O)N4)c(C)c2)C1 (stereo not shown) [Compound 647, 8-((4-(3-methoxy-3-(trifluoromethyl)pyrrolidin-1-yl)-2-methylphenyl)amino)-2,3-dihydrobenzo[b][1,4]oxazepin-4(5H)-one] | 0.1 to 100
30 | Cc1cc(N2C[C@@H](C)O[C@@H](C)C2)ccc1Nc1ccc2cnn(C)c2c1 [Compound 638, N-(4-((2S,6R)-2,6-dimethylmorpholino)-2-methylphenyl)-1-methyl-1H-indazol-6-amine] | 0.1 to 100
31 | COC1(C(F)(F)F)CN(c2ccc(Nc3ccc4c(c3)OCCC(=O)N4)c(C)c2)C1 [Compound 645, 8-[4-[3-methoxy-3-(trifluoromethyl)azetidin-1-yl]-2-methyl-anilino]-3,5-dihydro-2H-1,5-benzoxazepin-4-one] | 0.1 to 100
32 | O=C1COc2cc(Nc3cnc(N4CCC(C(F)(F)F)CC4)c(F)c3)ccc2N1 [Compound 459, 7-((5-fluoro-6-(4-(trifluoromethyl)piperidin-1-yl)pyridin-3-yl)amino)-2H-benzo[b][1,4]oxazin-3(4H)-one] | 0.1 to 100
33 | Cc1cc(Nc2cc(F)c3c(c2)OCC(=O)N3)ccc1N1CCC(C(F)(F)F)CC1 [Compound 481, 5-fluoro-7-((3-methyl-4-(4-(trifluoromethyl)piperidin-1-yl)phenyl)amino)-2H-benzo[b][1,4]oxazin-3(4H)-one] | 0.1 to 100
34 | Cc1cc(N2CCC(C(F)(F)F)CC2)ccc1Nc1ccc2nccn2c1 [Compound 624, N-(2-methyl-4-(4-(trifluoromethyl)piperidin-1-yl)phenyl) imidazo[1,2-a]pyridin-6-amine] | 0.1 to 100
35 | COC1(C(F)(F)F)CCN(c2ccc(Nc3ccc4c(c3)OCC(=O)N4)c(C)c2)C1 (stereo not shown) [Compound 616, 7-((4-(3-methoxy-3-(trifluoromethyl)pyrrolidin-1-yl)-2-methylphenyl)amino)-2H-benzo[b][1,4]oxazin-3(4H)-one] | 0.1 to 100
36 | Cc1cc(N2CC(C)OC(C)C2)ccc1Nc1cnc2c(c1)OCC(=O)N2 (stereo not shown) [Compound 462, 7-((4-(2,6-dimethylmorpholino)-2-methylphenyl)amino)-2H-pyrido[3,2-b][1,4]oxazin-3(4H)-one] | 0.1 to 100
37 | Cc1cc(N2CCC(C(F)(F)F)CC2)ccc1Nc1ccc2[nH]c(=O)[nH]c2c1 [Compound 513, 5-((2-methyl-4-(4-(trifluoromethyl)piperidin-1-yl)phenyl)amino)-1,3-dihydro-2H-benzo[d]imidazol-2-one] | 0.1 to 100
